Experimental data taken from PubChem BioAssay (NCI).
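Protocol summary: plate cells (96-well), add compound at 5 concentrations, incubate 48 h, interpolate endpoints linearly. TGI: total growth inhibition.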

Experiments:
Experiment in all cases: inhibition of tumour cell growth, NCI panel, 48 h
[1] = test system: SNB-19 CNS
[2] = test system: SN12C renal
[3] = test system: SNB-75 CNS
[4] = test system: HS 578T breast
[5] = test system: HL-60(TB) leukemia
[6] = test system: MCF7 breast
[7] = test system: 786-0 renal
[8] = test system: U251 CNS
[9] = test system: K-562 leukemia
[10] = test system: NCI-H522 lung
[11] = test system: HT29 colon
[12] = test system: A498 renal
[13] = test system: OVCAR-4 ovarian
[14] = test system: RXF 393 renal
[15] = test system: OVCAR-8 ovarian
[16] = test system: NCI-H23 lung
[17] = test system: TK-10 renal
[18] = test system: HCT-116 colon
[19] = test system: M14 melanoma
[20] = test system: HCT-15 colon
[21] = test system: SK-MEL-2 melanoma
[22] = test system: HOP-62 NSCLC
[23] = test system: UACC-257 melanoma
[24] = test system: NCI-H226 lung
[25] = test system: A549 NSCLC
[26] = test system: MDA-MB-231 breast
[27] = test system: KM12 colon
[28] = test system: MDA-N
[29] = test system: DU-145 prostate
[30] = test system: SF-295 CNS
[31] = test system: IGROV1 ovarian
[32] = test system: HCC-2998 colon
[33] = test system: RPMI-8226 leukemia
[34] = test system: LOX IMVI melanoma
[35] = test system: BT-549 breast
[36] = test system: MALME-3M melanoma
[37] = test system: MDA-MB-435
[38] = test system: PC-3 prostate
[39] = test system: SF-268 CNS
[40] = test system: CCRF-CEM leukemia
[41] = test system: HOP-92 NSCLC
[42] = test system: ACHN renal
[43] = test system: COLO 205 colon
[44] = test system: T-47D breast
[45] = test system: EKVX NSCLC
[46] = test system: OVCAR-3 ovarian
[47] = test system: CAKI-1 renal
[48] = test system: SK-MEL-5 melanoma
[49] = test system: UACC-62 melanoma
[50] = test system: UO-31 renal
[51] = test system: MOLT-4 leukemia
[52] = test system: SR leukemia
[53] = test system: SW-620 colon
[54] = test system: SK-MEL-28 melanoma
[55] = test system: NCI-H460 lung
[56] = test system: SK-OV-3 ovarian
[57] = test system: NCI/ADR-RES ovarian
[58] = test system: OVCAR-5 ovarian
[59] = test system: SF-539 CNS
[60] = test system: DMS 273 small cell lung
[61] = test system: KM20L2 colon
[62] = test system: M19-MEL melanoma
[63] = test system: SNB-78 CNS
[64] = test system: DLD-1 colon
[65] = test system: DMS 114 small cell lung
[66] = test system: LXFL 529 NSCLC
[67] = test system: HOP-18 NSCLC

`O=C1C(c2c(O)[nH]c3ccc(S(=O)(=O)O)cc23)=Nc2ccccc21` showed a TGI [1] of over 100 µM, a TGI [2] of over 100 µM and a TGI [3] of over 100 µM. It also gave a TGI [4] of over 100 µM, a TGI [5] of over 100 µM and a TGI [6] of over 100 µM. For the same molecule, the TGI [7] was over 100 µM, the TGI [8] was over 100 µM and the TGI [9] was over 100 µM. The TGI [10] was over 100 µM, the TGI [11] was over 100 µM and the TGI [12] was over 100 µM. It also gave a TGI [13] of over 100 µM, a TGI [14] of over 100 µM and a TGI [15] of over 100 µM. For the same molecule, the TGI [16] was over 100 µM, the TGI [17] was over 100 µM and the TGI [18] was over 100 µM. For the same molecule, the TGI [19] was over 100 µM, the TGI [20] was over 100 µM and the TGI [21] was over 100 µM. It also gave a TGI [22] of over 100 µM, a TGI [23] of over 100 µM and a TGI [24] of over 100 µM. It also gave a TGI [25] of over 100 µM, a TGI [26] of over 100 µM and a TGI [27] of over 100 µM. It also gave a TGI [28] of over 100 µM, a TGI [29] of over 100 µM and a TGI [30] of over 100 µM. It also gave a TGI [31] of over 100 µM, a TGI [32] of over 100 µM and a TGI [33] of over 100 µM. The TGI [34] was over 100 µM, the TGI [35] was over 100 µM and the TGI [36] was over 100 µM. For the same molecule, the TGI [37] was over 100 µM, the TGI [38] was over 100 µM and the TGI [39] was over 100 µM. It also gave a TGI [40] of over 100 µM, a TGI [41] of over 100 µM and a TGI [42] of over 100 µM. The TGI [43] was over 100 µM, the TGI [44] was over 100 µM and the TGI [45] was over 100 µM. It also gave a TGI [46] of over 100 µM, a TGI [47] of over 100 µM and a TGI [48] of over 100 µM. It also gave a TGI [49] of over 100 µM, a TGI [50] of over 100 µM and a TGI [51] of over 100 µM. For the same molecule, the TGI [52] was over 100 µM, the TGI [53] was over 100 µM and the TGI [54] was over 100 µM. For the same molecule, the TGI [55] was over 100 µM, the TGI [56] was over 100 µM and the TGI [57] was over 100 µM. It also gave a TGI [58] of over 100 µM.
`CC(C)=CCc1c2c(c3occ(-c4ccc(O)c(O)c4)c(=O)c3c1O)C=CC(C)(C)O2` showed a TGI [1] of 5.02 µM, a TGI [2] of 3.07 µM and a TGI [3] of 8.51 µM. The TGI [4] was 3.73 µM, the TGI [59] was 4.14 µM and the TGI [5] was 0.246 µM. The TGI [6] was 11.4 µM, the TGI [7] was 2.88 µM and the TGI [8] was 2.8 µM. The TGI [9] was 5.12 µM, the TGI [10] was 0.458 µM and the TGI [11] was 3.84 µM. It also gave a TGI [12] of 29 µM, a TGI [13] of 3.39 µM and a TGI [14] of 4.14 µM. It also gave a TGI [15] of 9.31 µM, a TGI [16] of 3.84 µM and a TGI [17] of 3.67 µM. For the same molecule, the TGI [18] was 4.29 µM, the TGI [19] was 3.5 µM and the TGI [20] was 5.35 µM. The TGI [21] was 11.1 µM, the TGI [22] was 4.4 µM and the TGI [23] was 4.89 µM. For the same molecule, the TGI [24] was 34.6 µM, the TGI [25] was 7.6 µM and the TGI [26] was 2.97 µM. It also gave a TGI [27] of 3.41 µM, a TGI [28] of 3.38 µM and a TGI [29] of 9.32 µM. For the same molecule, the TGI [30] was 12.8 µM, the TGI [31] was 6 µM and the TGI [32] was 2.45 µM. The TGI [33] was 4.04 µM, the TGI [34] was 5.22 µM and the TGI [35] was 13.8 µM. For the same molecule, the TGI [36] was 2.53 µM, the TGI [37] was 3.2 µM and the TGI [38] was 3.45 µM. It also gave a TGI [39] of 4.93 µM, a TGI [40] of 2.71 µM and a TGI [41] of 5 µM. For the same molecule, the TGI [42] was 6.29 µM, the TGI [43] was 4.04 µM and the TGI [44] was 10.5 µM. For the same molecule, the TGI [45] was 17.3 µM, the TGI [46] was 3.59 µM and the TGI [47] was 3.02 µM. For the same molecule, the TGI [48] was 7.72 µM, the TGI [49] was 14.2 µM and the TGI [50] was 2.9 µM. The TGI [51] was 1.43 µM, the TGI [52] was 2.12 µM and the TGI [53] was 2.36 µM. The TGI [54] was 8.66 µM, the TGI [55] was 3.21 µM and the TGI [56] was 20.5 µM. For the same molecule, the TGI [57] was 5.87 µM and the TGI [58] was 21.1 µM.
`O=C(CP(=O)(O)O)c1cccs1` showed a TGI [1] of over 100 µM, a TGI [2] of over 100 µM and a TGI [3] of over 100 µM. The TGI [59] was over 100 µM, the TGI [5] was over 100 µM and the TGI [7] was over 100 µM. For the same molecule, the TGI [8] was over 100 µM, the TGI [9] was over 100 µM and the TGI [10] was over 100 µM. The TGI [11] was over 100 µM, the TGI [12] was over 100 µM and the TGI [15] was over 100 µM. The TGI [16] was over 100 µM, the TGI [17] was over 100 µM and the TGI [18] was over 100 µM. For the same molecule, the TGI [19] was over 100 µM, the TGI [20] was over 100 µM and the TGI [60] was over 100 µM. For the same molecule, the TGI [21] was over 100 µM, the TGI [22] was over 100 µM and the TGI [23] was over 100 µM. It also gave a TGI [61] of over 100 µM, a TGI [25] of over 100 µM and a TGI [62] of over 100 µM. For the same molecule, the TGI [27] was over 100 µM, the TGI [30] was over 100 µM and the TGI [63] was over 100 µM. The TGI [31] was over 100 µM, the TGI [32] was over 100 µM and the TGI [33] was over 100 µM. It also gave a TGI [34] of over 100 µM, a TGI [64] of over 100 µM and a TGI [36] of over 100 µM. It also gave a TGI [39] of over 100 µM, a TGI [40] of over 100 µM and a TGI [41] of over 100 µM. It also gave a TGI [65] of over 100 µM, a TGI [66] of over 100 µM and a TGI [42] of over 100 µM. For the same molecule, the TGI [43] was over 100 µM, the TGI [45] was over 100 µM and the TGI [46] was over 100 µM. It also gave a TGI [47] of over 100 µM, a TGI [48] of over 100 µM and a TGI [49] of over 100 µM. It also gave a TGI [50] of over 100 µM, a TGI [67] of over 100 µM and a TGI [53] of over 100 µM. For the same molecule, the TGI [54] was over 100 µM, the TGI [55] was over 100 µM and the TGI [56] was over 100 µM. The TGI [58] was over 100 µM.
For `O=Cc1cn(C(=O)c2ccccc2)c2ccccc12`, the TGI [3] was over 100 µM, the TGI [59] was over 100 µM and the TGI [5] was 92.6 µM. The TGI [7] was over 100 µM, the TGI [8] was over 100 µM and the TGI [9] was over 100 µM. It also gave a TGI [11] of over 100 µM, a TGI [12] of over 100 µM and a TGI [13] of over 100 µM. For the same molecule, the TGI [14] was over 100 µM, the TGI [15] was over 100 µM and the TGI [16] was over 100 µM. It also gave a TGI [17] of over 100 µM, a TGI [18] of over 100 µM and a TGI [19] of over 100 µM. The TGI [20] was over 100 µM, the TGI [60] was over 100 µM and the TGI [21] was over 100 µM. The TGI [22] was over 100 µM, the TGI [23] was over 100 µM and the TGI [24] was over 100 µM. It also gave a TGI [61] of over 100 µM, a TGI [25] of over 100 µM and a TGI [62] of over 100 µM. The TGI [27] was over 100 µM, the TGI [30] was over 100 µM and the TGI [63] was over 100 µM. For the same molecule, the TGI [31] was over 100 µM, the TGI [32] was over 100 µM and the TGI [33] was over 100 µM. It also gave a TGI [64] of over 100 µM, a TGI [36] of over 100 µM and a TGI [40] of over 100 µM. The TGI [65] was over 100 µM, the TGI [66] was over 100 µM and the TGI [42] was over 100 µM. The TGI [45] was over 100 µM, the TGI [46] was over 100 µM and the TGI [47] was over 100 µM. It also gave a TGI [48] of over 100 µM, a TGI [49] of over 100 µM and a TGI [50] of over 100 µM. The TGI [51] was over 100 µM, the TGI [53] was over 100 µM and the TGI [54] was over 100 µM. It also gave a TGI [55] of over 100 µM, a TGI [56] of over 100 µM and a TGI [58] of over 100 µM.
